Literature values in paper PMC7520961, “Safety evaluation of the interchangeable use of robenacoxib in commercially-available tablets and solution for injection in cats” (BMC Veterinary Research, 2020).

How the values were obtained:
[1] = system: humans; settings: in vivo; cited from earlier work
[2] = system: anesthetized cats; settings: cited from earlier work

Row | SMILES | adverse oral reaction [1] | QT interval maximum ([2]; almokalant infusion) [ms] | lengthening of the QT interval ([2]; almokalant infusion) | QT interval before lengthening ([2]; before almokalant effect) [ms]
1 | CS(=O)(=O)c1ccc(C2=C(c3ccccc3)C(=O)OC2)cc1 [rofecoxib] | Oral ulceration |  |  | 
2 | CCC[S+]([O-])CCCN(CC)CC(O)COc1ccc(C#N)cc1 (stereo not shown) [almokalant] |  | 349 ± 8.0 | approximately 45% | 241 ± 6.0
